Assay results taken from patent US20220008401A1, “COMPOSITIONS AND METHODS FOR TREATING PULMONARY DISEASE WITH MATRIX METALLOPROTEINASE INHIBITORS” (DARSHA LLC, priority 2019, published 2022).

Key:
[1] = system: LPS injured mice; experiment: Lung wet:dry weight ratio, LPS-injured mice, q6h x 4 doses; type: in vivo; settings: LPS then Compound 1 every 6 hours for 4 doses; right lung; n=5 (LPS alone 19.44±1.6, PBS 7.5±0.12)
Method: Based on the data, the effect of a 6 hour dosing interval (q6h) of Compound 1 on injured mice lung was explored. FIG. 8B schematizes the experimental LPS injury/Compound 1 treatment workflow utilized unless otherwise indicated. Briefly, mice were nasally instilled with LPS (1.5 mg/kg) followed by initiation of Compound 1 treatment 24 hours later (i.e., after a 24 hours rest period). Four doses of Compound 1 (12 mg/kg) were administered via nebulizer every 6 hours to maintain a constant presence of compound in the lung. PBS was administered as a control. Mice were sacrificed 6 hours following the fourth dose. A major feature of ALI/ARDS is non-cardiogenic pulmonary edema resulting in profound hypoxemia. […] We next investigated if attenuation of edema occurred with the alternative treatment schedule where LPS-injured mice were treated with Compound 1 every 6 hours for 4 doses. Total lung edema was determined by assessing lung wet:dry ratios under each experimental condition. Following completion of Compound 1 treatment, the right lung was removed and immediately weighed followed by desiccation for 72 hours and weighed a second time to determine the dry weight. Wet:dry weight ratios were then calculated.

[2] = system: neutrophils; experiment: MTT assay of neutrophil viability; type: cell-based, human; settings: 1 hour exposure, high and low concentrations
Method: To ensure the observed effects were not a result of reduced neutrophil viability, an MTT assay was utilized. Neutrophils were exposed to Compound 1 for 1 hour followed by addition of MTT to the culture medium for 30 minutes. Cells were then solubilized in DMSO and the absorbances were read on a microplate reader.

[3] = system: LPS injured mice; experiment: Lung injury (inflammation) score of H&E lung sections, LPS-injured mice, single inhaled dose; type: in vivo, C57BL/6J mice; settings: LPS 1.5 mg/kg intranasal; 24 hours later single aerosolized dose 35 mg/kg; sacrifice one hour after; vs LPS alone p<0.001
Method: We next determined if inhaled Compound 1 attenuated specific features of acute inflammatory lung injury that were also observed in response to LPS. Again, 12-week-old male C57BL/6J mice were intranasally instilled with LPS (1.5 mg/kg of 1 mg/ml solution in sterile PBS). 24 hours later, these mice received a single dose of aerosolized MMP inhibitor (Compound 1, dissolved in PBS, 35 mg/kg) or PBS alone and a tail vein injection of FITC labeled albumin (FITC-albumin). One hour following nebulization, the mice were sacrificed. The left lung was fixed in formalin from each animal, paraffin embedded, sectioned and stained with H&E to examine histological features indicative of lung injury. These were achieved by visually scoring each slide based on a lung injury scoring system developed by the American Thoracic Society for animal models of inflammatory lung injury.

[4] = system: neutrophils; experiment: Neutrophil influx: myeloperoxidase staining and BALF differential cell counts, LPS-injured mice, q6h x 4 doses; type: in vivo
Method: Mice were nasally instilled with LPS followed by treatment with CGS every 6 hours for 4 doses. Mice were sacrificed 6 hours after the 4th dose of Compound 1 and lungs and BALF were collected for analysis. Paraffin embedded lung sections ([…]) were stained for myeloperoxidase, a neutrophil marker, followed by detection using DAB, to assess parenchymal neutrophil infiltration.
Differential cell counts were taken from each animal's cytospin with at least 3 separate images counted.

[5] = target: MMP 9 (Mus musculus, UniProt P41245); experiment: MMP 9 Quantikine assay on BALF of LPS-injured mice, single inhaled dose; type: in vivo, C57BL/6J mice; set-up: assessed for MMP activity in both the bronchoalveolar lavage fluid (BALF) and lung tissue homogenate obtained from treated mice; from tissue; host or cells: bronchoalveolar lavage fluid (BALF) of LPS-injured C57BL/6J mice; settings: LPS 1.5 mg/kg intranasal; 24 hours later single aerosolized dose 35 mg/kg; sacrifice one hour after nebulization
Method: MMP 9 was selected as a target as it is a well-established mediator of inflammation in lung injury. 12-week-old male C57BL/6J mice were intranasally instilled with LPS (1.5 mg/kg of 1 mg/ml solution in sterile PBS). 24 hours later, these mice received a single dose of aerosolized MMP inhibitor (Compound 1, dissolved in PBS, 35 mg/kg) or PBS alone. One hour following nebulization, the mice were sacrificed and assessed for MMP activity in both the bronchoalveolar lavage fluid (BALF) and lung tissue homogenate obtained from treated mice. One hour following nebulization of Compound 1, the presence of the aerosolized Compound 1 in the lung was confirmed at concentrations >100 ng/g of tissue. MMP activity in BALF was determined using a commercially available MMP 9 Quantikine assay from R&D systems.

[6] = system: LPS injured mice; experiment: FITC-albumin exclusion assay (BALF:serum), LPS-injured mice, q6h x 4 doses; type: in vivo; settings: LPS then inhaled Compound 1 every 6 hours for 4 doses; n=5 (LPS alone 1.04±0.13, PBS 0.44±0.11)
Method: Based on the data, the effect of a 6 hour dosing interval (q6h) of Compound 1 on injured mice lung was explored. FIG. 8B schematizes the experimental LPS injury/Compound 1 treatment workflow utilized unless otherwise indicated. Briefly, mice were nasally instilled with LPS (1.5 mg/kg) followed by initiation of Compound 1 treatment 24 hours later (i.e., after a 24 hours rest period). Four doses of Compound 1 (12 mg/kg) were administered via nebulizer every 6 hours to maintain a constant presence of compound in the lung. PBS was administered as a control. Mice were sacrificed 6 hours following the fourth dose. It was next determined if LPS induced edema was a result of increased permeability of the pulmonary vascular barrier. This was achieved using a FITC-albumin exclusion assay. Approximately 1 hour prior to sacrifice, mice received a tail vein injection of 3 mg of FITC labeled albumin. BALF and serum were collected and the amount of labeled albumin in each sample (BALF FITC Albumin:serum FITC Albumin) was determined using a fluorescent plate reader.

[7] = system: neutrophils (PMN); experiment: Myeloperoxidase staining of lung sections, LPS-injured mice, single inhaled dose; type: in vivo; settings: LPS treated mice
Method: Since substantial literature indicates neutrophils (PMN) are critical mediators of inflammatory damage in injured lung, we next assessed if inhaled Compound 1 attenuated PMN infiltration of LPS injured lungs. To achieve this, mice were injured with LPS and 24 h later received a single inhaled dose of Compound 1 and were sacrificed 1 hour after dosing. PMN infiltration was assessed by examining lung sections (qualitatively) and BALF (quantitatively) from Compound 1 treated and untreated mice. To assess the effects of Compound 1 on PMN in situ, paraffin embedded lung sections (prepared as described previously) were stained for myeloperoxidase, a PMN marker.

Sequence of MMP 9 (P41245 108-730): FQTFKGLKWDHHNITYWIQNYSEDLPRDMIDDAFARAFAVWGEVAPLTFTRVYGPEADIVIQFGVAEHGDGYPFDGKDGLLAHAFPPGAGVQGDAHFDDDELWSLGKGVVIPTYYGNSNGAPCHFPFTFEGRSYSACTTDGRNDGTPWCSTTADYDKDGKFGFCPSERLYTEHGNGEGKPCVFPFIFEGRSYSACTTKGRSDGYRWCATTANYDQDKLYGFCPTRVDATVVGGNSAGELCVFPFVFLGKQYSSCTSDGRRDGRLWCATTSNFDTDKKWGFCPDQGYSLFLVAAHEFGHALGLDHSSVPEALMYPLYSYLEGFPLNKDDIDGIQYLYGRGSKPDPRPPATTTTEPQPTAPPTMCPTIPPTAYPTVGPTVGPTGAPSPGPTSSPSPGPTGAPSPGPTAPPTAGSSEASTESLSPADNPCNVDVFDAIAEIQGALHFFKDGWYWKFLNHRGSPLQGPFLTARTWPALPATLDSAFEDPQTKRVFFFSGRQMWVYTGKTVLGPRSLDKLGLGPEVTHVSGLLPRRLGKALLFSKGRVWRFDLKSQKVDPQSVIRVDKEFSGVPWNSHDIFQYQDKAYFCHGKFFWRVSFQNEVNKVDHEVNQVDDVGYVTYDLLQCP

Q: “butanamide, N-hydroxy-2-[[(4-hydroxyphenyl)sulfonyl](3-pyridinylmethyl)amino]-3-methyl, hydrochloride, (2R) [Compound 1]” was tested. Which “wet:dry weight ratio” value [1] did it give?
A: Its value is 11.80±0.86.

Q: And the “neutrophil viability (MTT, reductive capacity)” value [2]?
A: The value was “no significant effect on neutrophil viability”.

Q: What about the “lung injury score (Inflammation Score)” value [3] of the same substance?
A: Its value is “reduces the lung injury score”.

Q: And the “overall inflammatory cell count in BALF” value ([4]; LPS then every 6 hours for 4 doses, n≥4 (LPS only 8.0e6±5.7e6))?
A: The value was 8.6e5±3.7e5 cells/mL.

Q: And the “parenchymal neutrophil infiltration (myeloperoxidase staining)” value ([4]; LPS then every 6 hours for 4 doses, sacrifice 6 hours after 4th dose)?
A: The value was “qualitatively reduced parenchymal neutrophil infiltration”.

Q: What about the “neutrophil count within the BALF” value ([4]; LPS-CGS group, every 6 hours for 4 doses, n≥5 (LPS-PBS 8.0e6±5.7e6)) of the same substance?
A: The value was 2.4e6±1.2e6 cells/ml.

Q: And the “MMP 9 activity in BALF” value [5]?
A: Its value is “inhibits MMP 9 activity in the BALF”.

Q: And the “FITC-albumin BALF:serum ratio” value [6]?
A: The value was 0.49±0.13.

Q: What about the “PMN infiltration into the lung parenchyma (myeloperoxidase staining)” value [7] of the same substance?
A: The value was “attenuates PMN infiltration into the lung parenchyma”.
